{"source": "patent US20200237700A1", "about": "“METHODS OF REDUCING OR PREVENTING OXIDATION OF SMALL DENSE LDL OR MEMBRANE POLYUNSATURATED FATTY ACIDS” (Amarin Pharmaceuticals Ireland Limited, priority 2015, published 2020)", "key": {"[1]": {"test": "Lipid hydroperoxide (LOOH) formation in cholesterol-enriched model membranes under autoxidation, CHOD-iodide assay (Example 3)", "assay_type": "biochemical", "details": "EPA to lipids 1:30, C/P 0.6:1", "procedure": "An experiment was conducted to test EPA in model membranes enriched with PUFAs and cholesterol at levels that reproduce disease or high CV-risk conditions (i.e., hypercholesterolemia). […] Levels of lipid hydroperoxides were also measured in cholesterol-enriched membrane prepared in the absence of EPA as a control. […] CHOD-iodide color reagent (stock) was prepared according to a procedure modified from El-Saadani et […], Goher […], Jurgens G. A spectrophotometric assay for lipid peroxides in serum lipoproteins using commercially available reagent. J. Lipid. […] Membrane samples consisting of DLPC±cholesterol were prepared as follows. Component lipids (in chloroform) were transferred to 13×100 mm test tubes and shell-dried under a steady stream of nitrogen gas while vortex mixing. The lipid was co-dried with EPA. Residual solvent was removed by drying for a minimum of 3 h under vacuum. […] Absorbances were measured against a CHOD blank at 365 nm using a Beckman DU-640 spectrophotometer. The CHOD colorimetric assay is based on the oxidation of iodide (I^-) by lipid hydroperoxides (LOOH) and proceeds according to the following reaction scheme: […]3^- The quantity of triiodide anion (I3^-) liberated in this reaction is directly proportional to the amount of lipid hydroperoxides present in the membrane sample."}, "[2]": {"test": "LOOH formation in glucose-treated model membranes, EPA versus EA and ETE (Example 5)", "assay_type": "biochemical", "details": "72 and 96 hr", "procedure": "An experiment was conducted to compare the ability of EPA to prevent lipid hydroperoxide formation in model membranes treated with glucose to two other 20-carbon fatty acids: eicosanoic acid (“EA,” also referred to as arachidic acid, C20:0) and eicosatrienoic acid (“ETE,” C20:3, n−3). All MLV samples were subjected to time-dependent autoxidation by incubating at 37° C. in an uncovered, shaking water bath. This method allows lipid peroxidation to occur gradually without requiring the use of exogenous initiators. Small aliquots (5-100 μL) of each sample were removed, immediately following MLV preparation (0 hr) and after exposing samples to oxidative conditions for 72 or 96 hr, and combined with 1.0 mL of activated CHOD-iodide color reagent. Aliquot volume was reduced with each successive time point to ensure that spectrophotometric readings were within the optimal adsorption range. Test samples were covered and incubated in darkness at room temperature for at least 4 hr. Sample absorbances were then measured against a CHOD blank at 365 nm using a Beckman DU-640 spectrophotometer. The CHOD colorimetric assay is based on the oxidation of iodide (I^−) by lipid hydroperoxide (LOOH) to form triiodide (I3^−), the quantity of which is directly proportional to the amount of LOOH present in the lipid sample. The molar absorptivity (E) of I3^− is 2.46×10^4 M^−1 cm^−1 at 365 nm."}, "[3]": {"system": "unfractionated LDL isolated from human plasma", "test": "Copper-induced oxidation of unfractionated LDL, TBARS (Example 6)", "assay_type": "biochemical", "details": "10.0 μM; unfractionated LDL", "procedure": "All test compounds were further diluted in ethanol or aqueous buffer as needed. Venous blood was collected from healthy volunteers into vacutainer tubes containing sodium EDTA. […] Plasma and lipoprotein fractions were maintained at 4° C. and protected from excessive exposure to light. Prior to oxidation experiments, EDTA was removed from the lipoprotein fraction using PD-10 desalting columns (GE Healthcare, Piscataway N.J.). After equilibration of the column with phosphate buffered saline (PBS), 2.5 mL of the lipoprotein fraction was loaded on the column and the flow-through discarded. The lipoprotein was then eluted with 3 mL of PBS. The LDL fractions were further diluted with PBS to obtain a 100 μg/mL apoB100 concentration. […] Differences between groups were analyzed using the two-tailed, Student's t-test (for comparisons between only two groups) or ANOVA followed by Dunnett or Student-Newman-Keuls multiple comparisons post-hoc analysis (for comparisons between three or more groups)."}, "[4]": {"system": "sdLDL from plasma of healthy volunteers", "test": "Time-dependent sdLDL oxidation, MDA formation over 4 hours (Example 13)", "assay_type": "biochemical, human", "details": "each at 10 μM; 4 hours; 10 μM CuSO4", "procedure": "sdLDL was isolated from the plasma of healthy volunteers by iodixanol density gradient centrifugation and adjusted to a final apolipoprotein concentration of 2 mg/mL. Sample aliquots (100 μg apolipoprotein) were incubated with EPA, DHA, or EPA+DHA (each at 10 μM) for 30 minutes at 37° C. and then treated with 10 μM CuSO4 to initiate lipid oxidation. sdLDL oxidation was measured spectrophotometrically as a function of malondialdehyde (MDA) formation at various intervals over 4 hours. Vitamin E was also tested as a positive control. Experiments were conducted in triplicate and reported as mean±SD."}, "[5]": {"system": "sdLDL isolated from human plasma", "test": "Copper-induced sdLDL oxidation 1 hour (Example 12)", "assay_type": "biochemical", "details": "10.0 μM; copper-induced oxidation 1 hour", "procedure": "All samples, with the exception of non-oxidized sdLDL controls, were subjected to copper-induced oxidation for 1 hour. Human umbilical vein endothelial cells (HUVECs) were incubated with the various sdLDL samples, stimulated with calcium, and monitored for nitric oxide (NO) and peroxynitrite (ONOO^−) release using nanosensor technology."}}}
{"smiles": "CC/C=C\\C/C=C\\C/C=C\\C/C=C\\C/C=C\\CCCC(=O)O", "note": "[EPA, cis-5,8,11,14,17-eicosapentaenoic acid]", "values": [{"measurement": "LOOH levels", "setting": "[1]; after autoxidation 37° C. 72 hours", "value": "728 ± 30", "unit": "µM"}, {"measurement": "reduced LOOH levels compared to untreated controls", "setting": "[1]; autoxidation 37° C. 72 hours", "value": "greater than 90%"}, {"measurement": "LOOH formation compared to vehicle only, glucose only, glucose and EA, glucose and ETE", "setting": "[2]", "value": "significantly less LOOH formation"}, {"measurement": "reduced TBARS levels", "setting": "[3]", "value": 17, "unit": "%"}, {"measurement": "MDA levels", "setting": "[4]", "value": "0.8 ± 0.03", "unit": "µM"}, {"measurement": "reduction in sdLDL oxidation (MDA levels)", "setting": "[4]", "value": 92, "unit": "%"}, {"measurement": "reduced sdLDL oxidation compared to vehicle treatment alone", "setting": "[5]", "value": "> 90", "unit": "%"}]}
